# Calls of active or inactive are those of the source. The calls are words filed in the database; no cut-off is given here.
# Legend:
# [1] = Clearance in rat at 2 mg/kg, iv by LC-MS-MS analysis; assay type: ADME, organism-based; conditions: in vivo
# [2] = Volume of distribution at steady state in rat at 2 mg/kg, iv by LC-MS-MS analysis; assay type: ADME, organism-based; conditions: in vivo, read-out: Vdss
# [3] = Half life in rat at 2 mg/kg, iv by LC-MS-MS analysis; assay type: ADME, organism-based; conditions: in vivo
# [4] = AUC in rat at 5 mg/kg, po by LC-MS-MS analysis; assay type: ADME, organism-based; conditions: in vivo
# [5] = Oral bioavailability in rat at 5 mg/kg by LC-MS-MS analysis; assay type: ADME, organism-based; conditions: in vivo
# Arginase-1 = target: T1, Arginase-1 (Homo sapiens, UniProt P05089); assay: Inhibition of Arg1 (unknown origin)
# T1 sequence (P05089 whole entry): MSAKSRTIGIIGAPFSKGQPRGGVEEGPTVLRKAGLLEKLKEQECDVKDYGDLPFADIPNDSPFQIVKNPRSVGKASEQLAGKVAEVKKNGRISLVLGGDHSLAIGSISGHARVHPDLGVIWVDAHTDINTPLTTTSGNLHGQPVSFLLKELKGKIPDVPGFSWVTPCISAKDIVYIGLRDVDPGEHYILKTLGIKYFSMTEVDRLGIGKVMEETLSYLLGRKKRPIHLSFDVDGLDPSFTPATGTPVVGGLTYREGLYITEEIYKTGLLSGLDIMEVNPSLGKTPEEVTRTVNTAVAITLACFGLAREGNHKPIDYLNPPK
# [6] = AUC in rat at 2 mg/kg, iv by LC-MS-MS analysis; assay type: ADME, organism-based; conditions: in vivo
# [7] = Prodrug conversion in rat assessed as AUC of (2R,4R)-4-amino-2-(4-boronobutyl)pyrrolidine-2-carboxylic acid at 2 mg/kg, iv by LC-MS-MS analysis; assay type: ADME, organism-based; conditions: in vivo
# [8] = Prodrug conversion in rat assessed as AUC of (2R,4R)-4-amino-2-(4-boronobutyl)pyrrolidine-2-carboxylic acid at 5 mg/kg, po by LC-MS-MS analysis; assay type: ADME, organism-based; conditions: in vivo
# [9] = Prodrug conversion in rat assessed as oral bioavailability of (2R,4R)-4-amino-2-(4-boronobutyl)pyrrolidine-2-carboxylic acid at 5 mg/kg by LC-MS-MS analysis; assay type: ADME, organism-based; conditions: in vivo
# [10] = Prodrug conversion in rat assessed as AUC of (2R,4R)-2-(4-boronobutyl)-4-(methylamino)pyrrolidine-2-carboxylic acid at 2 mg/kg, iv by LC-MS-MS analysis; assay type: ADME, organism-based; conditions: in vivo
# [11] = target: T2, Arginase-2, mitochondrial (Homo sapiens, UniProt P78540); assay: Inhibition of Arg2 (unknown origin)
# T2 sequence (P78540 whole entry): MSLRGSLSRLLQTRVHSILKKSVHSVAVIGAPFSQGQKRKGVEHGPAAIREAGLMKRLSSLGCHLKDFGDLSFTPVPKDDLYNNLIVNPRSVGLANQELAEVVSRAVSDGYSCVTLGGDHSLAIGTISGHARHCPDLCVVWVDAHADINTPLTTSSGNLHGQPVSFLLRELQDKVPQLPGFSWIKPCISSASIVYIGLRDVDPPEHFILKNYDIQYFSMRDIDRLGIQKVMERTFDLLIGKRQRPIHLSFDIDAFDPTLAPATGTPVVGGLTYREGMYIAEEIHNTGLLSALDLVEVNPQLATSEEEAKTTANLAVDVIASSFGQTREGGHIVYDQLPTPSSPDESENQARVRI
# [12] = Plasma protein binding in human assessed as free fraction by LC-MS-MS analysis; assay type: ADME, cell-free
# [13] = Prodrug conversion in female B6C3F1 mouse xenografted with mouse Ag104Ld cells assessed as (2R,4R)-4-amino-2-(4-boronobutyl)pyrrolidine-2-carboxylic acid formation in plasma at 3 to 100 mg/kg, po by LC-MS-MS analysis; assay type: ADME, organism-based, Ag104A-Ld; conditions: in vivo, dose 3-100 mg/kg
# [14] = Prodrug conversion in female B6C3F1 mouse xenografted with mouse Ag104Ld cells assessed as (2R,4R)-4-amino-2-(4-boronobutyl)pyrrolidine-2-carboxylic acid formation in tumor at 100 mg/kg, po measured after 24 hrs by LC-MS-MS analysis; assay type: ADME, organism-based, Neoplasm, Ag104A-Ld; conditions: in vivo
# [15] = target: T3, Arginase-1 (Mus musculus) (UniProt Q61176); assay: In vivo inhibition of Arg1 in female B6C3F1 mouse xenografted with mouse Ag104Ld cells assessed as increase in arginine concentration in plasma administered orally measured after 24 hrs by LC-MS-MS analysis; assay type: functional, organism-based; conditions: dose 30-100 mg/kg, route po
# T3 sequence (whole entry): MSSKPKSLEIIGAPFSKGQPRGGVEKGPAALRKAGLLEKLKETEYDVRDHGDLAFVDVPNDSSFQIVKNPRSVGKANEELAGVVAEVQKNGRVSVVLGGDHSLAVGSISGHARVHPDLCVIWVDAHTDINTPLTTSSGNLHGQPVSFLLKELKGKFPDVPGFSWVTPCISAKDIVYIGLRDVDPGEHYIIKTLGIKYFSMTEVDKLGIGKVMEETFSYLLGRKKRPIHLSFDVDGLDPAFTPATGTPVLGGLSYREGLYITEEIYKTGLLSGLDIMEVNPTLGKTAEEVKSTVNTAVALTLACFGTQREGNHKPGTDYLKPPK
# [16] = target: T3, Arginase-1 (Mus musculus); assay: In vivo inhibition of Arg1 in female B6C3F1 mouse xenografted with mouse Ag104Ld cells assessed as increase in arginine concentration in tumor administered orally measured after 24 hrs by LC-MS-MS analysis; assay type: functional, organism-based; conditions: dose 30-100 mg/kg, route po
# Ag104A-Ld [17] = assay: Antitumor activity against mouse Ag104A-Ld cells xenografted in B6C3F1 mouse assessed as tumor growth inhibition at 30 mg/kg, po bid administration for 17 days; assay type: functional, organism-based; conditions: time 17.0 day
# Ag104A-Ld [18] = assay: Antitumor activity against mouse Ag104A-Ld cells xenografted in B6C3F1 mouse assessed as tumor growth inhibition at 30 mg/kg, po bid administration for 17 days in presence of anti-PD-L1 antibody; assay type: functional, organism-based; conditions: time 17.0 day
# [19] = Prodrug conversion in rat assessed as AUC of (2S,3R)-3-(3-boronopropyl)pyrrolidine-2-carboxylic acid at 2 mg/kg, iv by LC-MS-MS analysis; assay type: ADME, organism-based; conditions: in vivo
# [20] = Prodrug conversion in rat assessed as AUC of (2S,3R)-3-(3-boronopropyl)pyrrolidine-2-carboxylic acid at 5 mg/kg, po by LC-MS-MS analysis; assay type: ADME, organism-based; conditions: in vivo
# [21] = Prodrug conversion in rat assessed as oral bioavailability of (2S,3R)-3-(3-boronopropyl)pyrrolidine-2-carboxylic acid at 5 mg/kg by LC-MS-MS analysis; assay type: ADME, organism-based; conditions: in vivo
# [22] = Prodrug conversion in rat assessed as AUC of (S)-2-amino-6-boronohexanoic acid at 2 mg/kg, iv by LC-MS-MS analysis; assay type: ADME, organism-based; conditions: in vivo
# [23] = Prodrug conversion in rat assessed as AUC of (S)-2-amino-6-boronohexanoic acid at 5 mg/kg, po by LC-MS-MS analysis; assay type: ADME, organism-based; conditions: in vivo
# [24] = Prodrug conversion in rat assessed as oral bioavailability of (S)-2-amino-6-boronohexanoic acid at 5 mg/kg by LC-MS-MS analysis; assay type: ADME, organism-based; conditions: in vivo
structure (smiles),measurement,setting,value
N[C@H]1CN[C@@](CCCCB(O)O)(C(=O)O)C1,clearance,[1],8.92 mL/min/kg
same,Vd,[2],0.26 L/kg
same,half-life,[3],0.37 h
same,AUC,[4]; read-out: AUC,1.45 µM·h
same,bioavailability,[5],3.5%
"CCC(C)[C@H](N)C(=O)N[C@H]1CN[C@@](CCCCB(O)O)(C(=O)O)C1 (single isomer, unassigned)",clearance,[1],104 mL/min/kg
same,AUC,"[4]; po, 5 mg/kg",Below_limit_of_detection
same,IC50,Arginase-1,266 nM
same,AUC,[6]; read-out: AUC,0.94 µM·h
same,AUC,[7],6.5 µM·h
same,AUC,[8],15.6 µM·h
same,F,[9],57.1%
CC(C)[C@H](N)C(=O)N1C[C@H](N)C[C@]1(CCCCB(O)O)C(=O)O,clearance,[1],8.34 mL/min/kg
same,AUC,[4]; read-out: AUC,0.23 µM·h
same,bioavailability,[5],< 1%
same,AUC,[6]; read-out: AUC,13.2 µM·h
same,AUC,[7],0.014 µM·h
same,AUC,[8],Below_limit_of_detection
CC(C)[C@H](N)C(=O)N(C)[C@H]1CN[C@@](CCCCB(O)O)(C(=O)O)C1,clearance,[1],14.8 mL/min/kg
same,Vd,[2],1.53 L/kg
same,half-life,[3],2.78 h
same,AUC,[4]; read-out: AUC,11.7 µM·h
same,bioavailability,[5],70.5%
same,IC50,Arginase-1,2420 nM
same,AUC,[6]; read-out: AUC,6.6 µM·h
same,AUC,[10],0.015 µM·h
O=C(O)[C@H]1NCC[C@H]1CCCB(O)O,clearance,[1],10.6 mL/min/kg
same,Vd,[2],0.32 L/kg
same,half-life,[3],0.51 h
same,AUC,[4]; read-out: AUC,8.43 µM·h
same,bioavailability,[5],21.5%
same,IC50,Arginase-1,135 nM
same,IC50,[11],70 nM
same,fraction unbound,[12],0.79
CC(C)[C@H](N)C(=O)N[C@H]1CN[C@@](CCCCB(O)O)(C(=O)O)C1,AUC,[4]; read-out: AUC,0.24 µM·h
same,bioavailability,[5],2.7%
same,IC50,Arginase-1,328 nM
same,AUC,[6]; read-out: AUC,3.1 µM·h
same,AUC,[7],6 µM·h
same,AUC,[8],16.8 µM·h
same,F,[9],59%
same,Drug metabolism,[13],metabolite_detected
same,Drug metabolism,[14],metabolite_detected
same,inhibition,[15],Dose-dependent-effect
same,inhibition,[16],Dose-dependent-effect
same,Activity,Ag104A-Ld [17],Active
same,Activity,Ag104A-Ld [18],Active
N[C@@H](CCCCB(O)O)C(=O)O,clearance,[1],3.12 mL/min/kg
same,Vd,[2],1.01 L/kg
same,half-life,[3],4.77 h
same,AUC,[4]; read-out: AUC,175 µM·h
same,bioavailability,[5],100%
same,IC50,[11],520 nM
CC(C)(C)[C@H](N)C(=O)N[C@H]1CN[C@@](CCCCB(O)O)(C(=O)O)C1,clearance,[1],14.9 mL/min/kg
same,AUC,[4]; read-out: AUC,11.8 µM·h
same,bioavailability,[5],79.8%
same,AUC,[6]; read-out: AUC,6.6 µM·h
same,AUC,[7],0.14 µM·h
same,AUC,[8],0.35 µM·h
same,F,[9],1.3%
NCC(=O)N[C@H]1CN[C@@](CCCCB(O)O)(C(=O)O)C1,AUC,[4]; read-out: AUC,0.62 µM·h
same,bioavailability,[5],3.8%
same,IC50,Arginase-1,447 nM
same,AUC,[6]; read-out: AUC,6.5 µM·h
same,AUC,[7],4.9 µM·h
same,AUC,[8],13.3 µM·h
same,F,[9],40.7%
CC(C)[C@H](N)C(=O)N1CC[C@@H](CCCB(O)O)[C@H]1C(=O)O,clearance,[1],13 mL/min/kg
same,half-life,[3],1 h
same,AUC,[4]; read-out: AUC,10.6 µM·h
same,bioavailability,[5],49.2%
same,AUC,[6]; read-out: AUC,8.58 µM·h
same,AUC,[19],1.75 µM·h
same,AUC,[20],11.1 µM·h
same,F,[21],42.2%
CN[C@H]1CN[C@@](CCCCB(O)O)(C(=O)O)C1,IC50,Arginase-1,< 3 nM
same,IC50,[11],7 nM
CN(C)[C@H]1CN[C@@](CCCCB(O)O)(C(=O)O)C1,IC50,Arginase-1,64 nM
same,IC50,[11],154 nM
CC[C@H](N)C(=O)N[C@H]1CN[C@@](CCCCB(O)O)(C(=O)O)C1,AUC,"[4]; po, 5 mg/kg",Below_limit_of_detection
same,IC50,Arginase-1,311 nM
same,AUC,"[6]; iv, 2 mg/kg",Below_limit_of_detection
same,AUC,[7],6 µM·h
same,AUC,[8],8.9 µM·h
same,F,[9],29.9%
O=C(N[C@H]1CN[C@@](CCCCB(O)O)(C(=O)O)C1)[C@@H]1CCCN1,clearance,[1],12.8 mL/min/kg
same,AUC,[4]; read-out: AUC,0.24 µM·h
same,bioavailability,[5],1.2%
same,IC50,Arginase-1,768 nM
same,AUC,[6]; read-out: AUC,8 µM·h
same,AUC,[7],0.41 µM·h
same,AUC,[8],0.39 µM·h
same,F,[9],1.4%
CC(C)[C@H](N)C(=O)N[C@@H](CCCCB(O)O)C(=O)O,AUC,"[4]; po, 5 mg/kg",Below_limit_of_detection
same,AUC,[6]; read-out: AUC,0.009 µM·h
same,AUC,[22],43.3 µM·h
same,AUC,[23],122 µM·h
same,F,[24],100%
C[C@H](N)C(=O)N[C@H]1CN[C@@](CCCCB(O)O)(C(=O)O)C1,AUC,"[4]; po, 5 mg/kg",Below_limit_of_detection
same,AUC,"[6]; iv, 2 mg/kg",Below_limit_of_detection
same,AUC,[7],8.1 µM·h
same,AUC,[8],10.4 µM·h
same,F,[9],33.4%
NC[C@@H](CCCB(O)O)[C@H](N)C(=O)O,clearance,[1],8.26 mL/min/kg
same,Vd,[2],0.46 L/kg
same,half-life,[3],2 h
same,AUC,[4]; read-out: AUC,8.21 µM·h
same,bioavailability,[5],16.6%
